Reference: PubChem BioAssay (NCI)
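Five compound concentrations were applied to cells in 96-well plates for 48 hours; endpoints were derived by simple linear interpolation of the resulting dose-response curve. GI50: concentration for 50% inhibition of growth. The concentration for full growth arrest is given as TGI.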

Assays:
Assay in all cases: inhibition of tumour cell growth, NCI panel, 48 h
NCI-H226 lung = tested on: NCI-H226 lung
MOLT-4 leukemia = tested on: MOLT-4 leukemia
HT29 colon = tested on: HT29 colon
EKVX NSCLC = tested on: EKVX NSCLC
SK-MEL-28 melanoma = tested on: SK-MEL-28 melanoma
K-562 leukemia = tested on: K-562 leukemia
HOP-92 NSCLC = tested on: HOP-92 NSCLC
HS 578T breast = tested on: HS 578T breast
UO-31 renal = tested on: UO-31 renal
HCT-15 colon = tested on: HCT-15 colon
CCRF-CEM leukemia = tested on: CCRF-CEM leukemia
MDA-MB-435 = tested on: MDA-MB-435
786-0 renal = tested on: 786-0 renal
NCI-H460 lung = tested on: NCI-H460 lung
SF-295 CNS = tested on: SF-295 CNS
UACC-257 melanoma = tested on: UACC-257 melanoma
MALME-3M melanoma = tested on: MALME-3M melanoma
RXF 393 renal = tested on: RXF 393 renal
SNB-75 CNS = tested on: SNB-75 CNS
SK-OV-3 ovarian = tested on: SK-OV-3 ovarian
OVCAR-8 ovarian = tested on: OVCAR-8 ovarian
DU-145 prostate = tested on: DU-145 prostate
SF-539 CNS = tested on: SF-539 CNS
TK-10 renal = tested on: TK-10 renal
RPMI-8226 leukemia = tested on: RPMI-8226 leukemia
OVCAR-5 ovarian = tested on: OVCAR-5 ovarian
UACC-62 melanoma = tested on: UACC-62 melanoma
COLO 205 colon = tested on: COLO 205 colon
ACHN renal = tested on: ACHN renal
MDA-MB-231 breast = tested on: MDA-MB-231 breast
OVCAR-3 ovarian = tested on: OVCAR-3 ovarian
T-47D breast = tested on: T-47D breast
SN12C renal = tested on: SN12C renal
KM12 colon = tested on: KM12 colon
A549 NSCLC = tested on: A549 NSCLC
LOX IMVI melanoma = tested on: LOX IMVI melanoma
SW-620 colon = tested on: SW-620 colon
HCT-116 colon = tested on: HCT-116 colon
U251 CNS = tested on: U251 CNS
A498 renal = tested on: A498 renal
PC-3 prostate = tested on: PC-3 prostate
CAKI-1 renal = tested on: CAKI-1 renal
BT-549 breast = tested on: BT-549 breast
NCI-H23 lung = tested on: NCI-H23 lung
SF-268 CNS = tested on: SF-268 CNS
HOP-62 NSCLC = tested on: HOP-62 NSCLC
M14 melanoma = tested on: M14 melanoma
IGROV1 ovarian = tested on: IGROV1 ovarian
OVCAR-4 ovarian = tested on: OVCAR-4 ovarian
NCI-H522 lung = tested on: NCI-H522 lung
SK-MEL-2 melanoma = tested on: SK-MEL-2 melanoma
SK-MEL-5 melanoma = tested on: SK-MEL-5 melanoma
HCC-2998 colon = tested on: HCC-2998 colon
SNB-19 CNS = tested on: SNB-19 CNS
MCF7 breast = tested on: MCF7 breast
HL-60(TB) leukemia = tested on: HL-60(TB) leukemia
SR leukemia = tested on: SR leukemia

Structure (SMILES): COc1ccc(OC)c(C2SCC(=O)N2NC(=O)C(O)c2ccccc2)c1 (stereo not drawn)
- GI50 (NCI-H226 lung): > 100 µM
- TGI (NCI-H226 lung): > 100 µM
- GI50 (MOLT-4 leukemia): > 100 µM
- TGI (MOLT-4 leukemia): > 100 µM
- GI50 (HT29 colon): > 100 µM
- TGI (HT29 colon): > 100 µM
- GI50 (EKVX NSCLC): > 100 µM
- TGI (EKVX NSCLC): > 100 µM
- GI50 (SK-MEL-28 melanoma): > 100 µM
- TGI (SK-MEL-28 melanoma): > 100 µM
- GI50 (K-562 leukemia): > 100 µM
- TGI (K-562 leukemia): > 100 µM
- GI50 (HOP-92 NSCLC): > 100 µM
- TGI (HOP-92 NSCLC): > 100 µM
- GI50 (HS 578T breast): > 100 µM
- TGI (HS 578T breast): > 100 µM
- GI50 (UO-31 renal): > 100 µM
- TGI (UO-31 renal): > 100 µM
- GI50 (HCT-15 colon): > 100 µM
- TGI (HCT-15 colon): > 100 µM
- GI50 (CCRF-CEM leukemia): > 100 µM
- TGI (CCRF-CEM leukemia): > 100 µM
- GI50 (MDA-MB-435): > 100 µM
- TGI (MDA-MB-435): > 100 µM
- GI50 (786-0 renal): > 100 µM
- TGI (786-0 renal): > 100 µM
- GI50 (NCI-H460 lung): > 100 µM
- TGI (NCI-H460 lung): > 100 µM
- GI50 (SF-295 CNS): > 100 µM
- TGI (SF-295 CNS): > 100 µM
- GI50 (UACC-257 melanoma): > 100 µM
- TGI (UACC-257 melanoma): > 100 µM
- GI50 (MALME-3M melanoma): > 100 µM
- TGI (MALME-3M melanoma): > 100 µM
- GI50 (RXF 393 renal): > 100 µM
- TGI (RXF 393 renal): > 100 µM
- GI50 (SNB-75 CNS): > 100 µM
- TGI (SNB-75 CNS): > 100 µM
- GI50 (SK-OV-3 ovarian): > 100 µM
- TGI (SK-OV-3 ovarian): > 100 µM
- GI50 (OVCAR-8 ovarian): > 100 µM
- TGI (OVCAR-8 ovarian): > 100 µM
- GI50 (DU-145 prostate): > 100 µM
- TGI (DU-145 prostate): > 100 µM
- GI50 (SF-539 CNS): > 100 µM
- TGI (SF-539 CNS): > 100 µM
- GI50 (TK-10 renal): > 100 µM
- TGI (TK-10 renal): > 100 µM
- GI50 (RPMI-8226 leukemia): > 100 µM
- TGI (RPMI-8226 leukemia): > 100 µM
- GI50 (OVCAR-5 ovarian): > 100 µM
- TGI (OVCAR-5 ovarian): > 100 µM
- GI50 (UACC-62 melanoma): > 100 µM
- TGI (UACC-62 melanoma): > 100 µM
- GI50 (COLO 205 colon): > 100 µM
- TGI (COLO 205 colon): > 100 µM
- GI50 (ACHN renal): > 100 µM
- TGI (ACHN renal): > 100 µM
- GI50 (MDA-MB-231 breast): > 100 µM
- TGI (MDA-MB-231 breast): > 100 µM
- GI50 (OVCAR-3 ovarian): > 100 µM
- TGI (OVCAR-3 ovarian): > 100 µM
- GI50 (T-47D breast): > 100 µM
- TGI (T-47D breast): > 100 µM
- GI50 (SN12C renal): > 100 µM
- TGI (SN12C renal): > 100 µM
- GI50 (KM12 colon): > 100 µM
- TGI (KM12 colon): > 100 µM
- GI50 (A549 NSCLC): > 100 µM
- TGI (A549 NSCLC): > 100 µM
- GI50 (LOX IMVI melanoma): > 100 µM
- TGI (LOX IMVI melanoma): > 100 µM
- GI50 (SW-620 colon): > 100 µM
- TGI (SW-620 colon): > 100 µM
- GI50 (HCT-116 colon): > 100 µM
- TGI (HCT-116 colon): > 100 µM
- GI50 (U251 CNS): > 100 µM
- TGI (U251 CNS): > 100 µM
- GI50 (A498 renal): > 100 µM
- TGI (A498 renal): > 100 µM
- GI50 (PC-3 prostate): > 100 µM
- TGI (PC-3 prostate): > 100 µM
- GI50 (CAKI-1 renal): > 100 µM
- TGI (CAKI-1 renal): > 100 µM
- GI50 (BT-549 breast): > 100 µM
- TGI (BT-549 breast): > 100 µM
- GI50 (NCI-H23 lung): > 100 µM
- TGI (NCI-H23 lung): > 100 µM
- GI50 (SF-268 CNS): > 100 µM
- TGI (SF-268 CNS): > 100 µM
- GI50 (HOP-62 NSCLC): > 100 µM
- TGI (HOP-62 NSCLC): > 100 µM
- GI50 (M14 melanoma): > 100 µM
- TGI (M14 melanoma): > 100 µM
- GI50 (IGROV1 ovarian): > 100 µM
- TGI (IGROV1 ovarian): > 100 µM
- GI50 (OVCAR-4 ovarian): > 100 µM
- TGI (OVCAR-4 ovarian): > 100 µM
- GI50 (NCI-H522 lung): > 100 µM
- TGI (NCI-H522 lung): > 100 µM
- GI50 (SK-MEL-2 melanoma): > 100 µM
- TGI (SK-MEL-2 melanoma): > 100 µM
- GI50 (SK-MEL-5 melanoma): > 100 µM
- TGI (SK-MEL-5 melanoma): > 100 µM
- GI50 (HCC-2998 colon): > 100 µM
- TGI (HCC-2998 colon): > 100 µM
- GI50 (SNB-19 CNS): > 100 µM
- TGI (SNB-19 CNS): > 100 µM
- GI50 (MCF7 breast): > 100 µM
- TGI (MCF7 breast): > 100 µM

Structure (SMILES): COc1cc(C2C3=C(COC3=O)Oc3cc4c(cc32)OCO4)cc(OC)c1OC(C)=O (stereo not drawn)
- TGI (MOLT-4 leukemia): > 100 µM
- TGI (HL-60(TB) leukemia): 0.615 µM
- TGI (EKVX NSCLC): > 100 µM
- TGI (K-562 leukemia): > 100 µM
- TGI (SR leukemia): > 100 µM
- TGI (UO-31 renal): > 39.4 µM
- TGI (HCT-15 colon): > 100 µM
- TGI (CCRF-CEM leukemia): > 100 µM
- TGI (786-0 renal): > 100 µM
- TGI (NCI-H460 lung): > 100 µM
- TGI (UACC-257 melanoma): > 100 µM
- TGI (MALME-3M melanoma): > 100 µM
- TGI (OVCAR-8 ovarian): > 100 µM
- TGI (DU-145 prostate): > 100 µM
- TGI (TK-10 renal): > 100 µM
- TGI (RPMI-8226 leukemia): > 100 µM
- TGI (COLO 205 colon): 0.336 µM
- TGI (ACHN renal): > 57.2 µM
- TGI (OVCAR-3 ovarian): > 100 µM
- TGI (SN12C renal): > 100 µM
- TGI (KM12 colon): > 100 µM
- TGI (A549 NSCLC): > 100 µM
- TGI (LOX IMVI melanoma): > 24.1 µM
- TGI (U251 CNS): > 100 µM
- TGI (A498 renal): 0.618 µM
- TGI (CAKI-1 renal): > 100 µM
- TGI (BT-549 breast): 5.74 µM
- TGI (SF-268 CNS): > 100 µM
- TGI (HOP-62 NSCLC): > 100 µM
- TGI (M14 melanoma): > 100 µM
- TGI (IGROV1 ovarian): 10.9 µM
- TGI (OVCAR-4 ovarian): > 100 µM
- TGI (NCI-H522 lung): > 100 µM
- TGI (SK-MEL-2 melanoma): > 100 µM
- TGI (SK-MEL-5 melanoma): 0.0785 µM
- TGI (HCC-2998 colon): > 100 µM
- TGI (SNB-19 CNS): > 100 µM
- TGI (MCF7 breast): > 51.6 µM
